Measurements taken from article PMC8122671, “New Succinimides with Potent Anticancer Activity: Synthesis, Activation of Stress Signaling Pathways and Characterization of Apoptosis in Leukemia and Cervical Cancer Cells” (International Journal of Molecular Sciences, 2021).
Where two headings read alike, the source gives them in different places.

Columns and labels:
[1] = tested on: MOLT-4 (Human T-Lymphoid Cell Line); test: MTT cytotoxicity assay, MOLT-4; assay type: cell-based; conditions: MOLT-4, 48 h incubation, average (SD) of three experiments, read-out: IC50 MOLT-4
[2] = tested on: K562 (myelogenous leukemia cell line); test: MTT cytotoxicity assay, K562; assay type: cell-based, human; conditions: 48 h incubation, average (SD) of three experiments, read-out: IC50 K562
[3] = Lipophilicity (logkw) by reversed-phase chromatography (RP-HPLC); assay type: physicochemical; conditions: for logkw (Experimental): extrapolated to pure water; for logkw (Table S2): intercept of logk vs methanol fraction, n = 4
Text: The main goal of the synthetic part was the synthesis of new derivatives of dicarboximides with decreased lipophilicity in comparison to the lead compounds, i.e., Ia–Ie and II. To reduce the lipophilicity of the new dicarboximides, a hydroxyalkyl chain connected with an aliphatic amine was introduced to the imides (Scheme 1). At the same time, the imide scaffold in derivatives from group 2 and 3 was the same as in lead compounds Ia–Ie and II, respectively (Figure 1). The structure of the imide was changed in derivatives 1b–1g. The lipophilicity of new derivatives was calculated using the Osiris Property Explorer program. For some compounds, lipophilicity was determined experimentally by a reversed-phase chromatography (detailed description is given in Materials and Methods and in the Supplementary Data, Table S2). Table 1 summarizes the calculated (clogP) and experimental (logkw) parameters of the lipophilicity of new derivatives.
The reversed-phase high-performance liquid chromatography (RP-HPLC) analysis was performed on a Merck–Hitachi LaChrom Elite System (Merck, Darmstadt, Germany) with diode array detector L-2455, thermostat L-2300, pump L-2130, and autosampler L-2200 and with the Waters XTerra MS RP-18 (3.5 μm, 150 × 4.6 mm) chromatographic column (Waters, Milford, MA, USA) as the stationary phase. The mobile phase consisted of methanol, water, and 0.1% (v/v) formic acid and was degassed by the use of the built-in membrane degasser. The methanol gradient grade for HPLC was purchased from Merck (Merck, Darmstadt, Germany) and formic acid from Polish Reagents (Polish Reagents, Gliwice, Poland); double-distilled water was used. Then, 5 μL of methanolic solutions (0.1%; m/v) of selected samples were applied to the chromatographic column by the use of an autosampler Hitachi L-2200 (LaChrom Elite, Hitachi-Merck, Darmstadt, Germany). The analysis was performed with the flow rate of 0.7 mL min^−1 in isocratic mode using various concentrations of organic modifier (methanol) in binary polar mobile phases; percentages of methanol in water were 45–70% (%, v/v) and changed by 5% per step. Chromatograms were detected at 254 nm and the temperature of the column was 25 °C. All experiments were repeated in triplicate, and the final results were taken to be the arithmetic means. Dead time was measured by the use of uracil (Calbiochem. Merck, Darmstadt, Germany). Statistical and regression analyses were performed using Statistica (ver. 13.3 for Windows). The chromatographic lipophilicity parameters ( logkW ) for selected samples were obtained by the extrapolation of the retention parameter logk to pure water, according to Equation (1):(1) logk=logkw−S·ϕ; where logkW is the value of the retention factor of a substance in pure water, S is the slope of the regression curve, and ϕ is the concentration of the organic modifier. The values of logk were calculated based on the raw HPLC data using the formula (2):(2) logk=logtR−t0/t0; where tR is the retention time and t0 is the dead retention time (determined for uracil).
The chromatographic lipophilicity parameters (logkௐ ) for selected samples were ob‐ tained by the extrapolation of the retention parame te r logk to pure water, according to […]
where logkௐ is the value of the retention factor of a substance in pure water, S is the slope of the regression curve, and φ is the concentration of the organic modifier. The values of logk were ca lcula ted based on the raw HPLC data using the formula: […]
logk ൌ log ሺ௧ೃ ି ௧బ௧బ ሻ (2) where tோ is the retention time and t଴ is the dead retention time (determined for ura‐ cil). The goodness of fit of the equation (1) to the experimental data was classified accord‐ ing to Jaffe (Jaffe, H. H. A Reexamination of the Hammet Equation. Chem. Rev. 1953, 53, In our RP‐HPLC experiments, the goodness of fit of the equation to the experi‐ mental data are excellent in most ca ses (r > 0.99). The F statistic val ues are, in all cases, […]

[4] = tested on: HUVEC (normal endothelial) cells; test: MTT cytotoxicity assay, HUVEC; assay type: cell-based; conditions: Homo sapiens, 48 h incubation, average (SD) of three experiments, read-out: IC50 HUVEC

| logkw (Experimental) [3] | logkw (Table S2) [3] | Structure (SMILES) | IC50 [1] [µM] | IC50 [2] [µM] | IC50 ([2]; Homo sapiens, K562, 48 h) [µM] | IC50 [4] [µM] |
| --- | --- | --- | --- | --- | --- | --- |
| 4.74 | 4.7442 | CCC12C(=O)C(CC)(C(c3ccccc3)=C1c1ccccc1)C1C(=O)N(CC(O)CNC(C)(C)C)C(=O)C12 (stereo not shown) [2c, 4-[3-(tert-butylamino)-2-hydroxypropyl]-1,7-diethyl-8,9-diphenyl-4-azatricyclo [5.2.1.0^2,6]dec-8-ene-3,5,10-trione] | 2.5 | 4 | < 6 | 3.3 |
| 5.10 | 5.1042 | CCN(CC)CC(O)CN1C(=O)C2C(C1=O)C1(CC)C(=O)C2(CC)C(c2ccccc2)=C1c1ccccc1 (stereo not shown) [2d, 4-[3-(diethylamino)-2-hydroxypropyl]-1,7-diethyl-8,9-diphenyl-4-azatricyclo [5.2.1.0^2,6]dec-8-ene-3,5,10-trione] | 14 | 5.8 | < 6 | 3.6 |
| 6.06 | 6.0611 | CC(C)(C)NCC(O)CN1C(=O)C2C(C1=O)C1(c3ccccc3)CC2(c2ccccc2)C(c2ccccc2)=C1c1ccccc1 (stereo not shown) [3c, 4-[3-(tert-butylamino)-2-hydroxypropyl]-1,7,8,9-tetraphenyl-4-azatricyclo[5.2.1.0^2,6]dec-8-ene-3,5-dione] | 2.6 |  |  | 0.4 |
| 6.28 | 6.2845 | CCN(CC)CC(O)CN1C(=O)C2C(C1=O)C1(c3ccccc3)CC2(c2ccccc2)C(c2ccccc2)=C1c1ccccc1 (stereo not shown) [3d, 4-[3-(diethylamino)-2-hydroxypropyl]-1,7,8,9-tetraphenyl-4-azatricyclo[5.2.1.0^2,6]dec-8-ene-3,5-dione] | 2.2 | 3.2 | < 6 | 0.3 |
